# According to patent US10064865B2, “Composition comprising phosphodiesterase type 5 inhibitor for inhibiting apoptosis of nerve cells” (ARIBIO INC., priority 2012, dated 2018):
# Marks after values point to notes of the source that are not given here.
# Experiments:
# [1] = system: neuron apoptosis-operated rats, ipsilateral cerebral cortex; assay: Example 1 histopathology (H&E): cerebral atrophy and degenerative neurons; assay type: in vivo, Sprague-Dawley (SD) rats; conditions: for Cerebral atrophic % / Numbers of neurons: Degenerative cells: 29 days after neuron apoptosis
# Protocol: Total one hundred healthy male Sprague-Dawley (SD) rats (6-wk old upon receipt; Japan; Body weight ranged in 180-200 g upon receipt) were used after acclimatization for […]. Animals were allocated five per polycarbonate cage in a temperature (20-25° C.) and humidity (50-55%) controlled room. Light:dark cycle was 12 hr:12 hr, and standard rodent chow (Samyang, Korea) and water were supplied free to access. All animals were treated in accordance with the Guidelines for Care and Use of Laboratory Animals of Daegu Haany University based on the Guide for the Care and Use of Laboratory Animals by Institute of Laboratory Animal Resources, Commission on Life Science, National Research Council, USA on 1996, Washington D.C. Experimental groups were as follows:
# The mirodenafil (mirodenafil 2HCl; SK Chemical Life Science Business, KR) was used in this experiment. […] Mirodenafil was stored at 4° C. in a refrigerator to protect from light and humidity until used. Three different dosages, 0.5, 1 and 2 mg/kg of mirodenafil were directly dissolved in saline and subcutaneously administered in a volume of 1 ml/kg on the dorsal back skins, once a day for 28 days from 24 hrs after stabilization periods from operation. In saline and neuron apoptosis control rats, equal volumes of saline as vehicle were administered, instead of mirodenafil, respectively.
# (§1) The induction of neuron apoptosis was carried out by damaging the right hemisphere of the brain of animals. Specifically, animals were anesthetized with 2 or 3% isoflurane in the mixture of 70% N2O and 28.5% O2, and were maintained with 1 to 1.5% isoflurane in the mixture of 70% N2O and 28.5% O2. After that the temporalis muscle was bisected and reflected through an incision made midway between the eye and the eardrum canal. The proximal MCA was exposed through a subtemporal craniectomy by microdental drills without removing the zygomatic arch and without transecting the facial nerve. […] Mortality was less than 5%. For sham control, all procedures were performed in the same way, with the exception of the occlusion of the MCA.
# At 29 days after neuron apoptosis rats were sacrificed. Brains were removed, washed in chilled phosphate buffered saline (PBS, pH7.4), and dissected into 6 coronal sections (2 mm thickness) ranging from 2 to 14 mm from the frontal brain pole on the rat brain stainless steel coronal matrix (Harvard, USA). Brain slices prepared by the stainless steel coronal matrix were directly fixed in 10% NBF, not stained with TTC. Then, embedded in paraffin, cross-sectioned, and stained with hematoxylin and eosin (H&E) for observing general histopathology of cerebral cortex. […] The histopathologist was blindes to group distribution when this analysis was made.
# Histomorphometry: The atrophic % of ipsilateral cerebral cortex was calculated as following equation 1 as compared with intact contralateral hemisphere. In addition, the numbers of degenerative neurons were also measured in the restricted view fields of cerebral cortex, mm^2, respectively. Cerebral atrophy formation=(Contralateral cerebral cortex area−ipsilateral cerebral cortex area)/Contralateral cerebral cortex area×100(%) [EQUATION 1]
# All data were expressed as mean±standard deviation (S.D.) of ten rats. Multiple comparison tests for different dose groups were conducted. Variance homogeneity was examined using the Levene test (Levene A, Clin Otalary, 1981; 6:145-51). […] Statistical analyses were conducted using SPSS (Release 14K, SPSS Inc., USA; Ludbrook, Clin Exp Pharmacol Physiol, 1997; 24:294-6). In addition, the percent changes between neuron apoptosis control and mirodenafil treated rats were calculated to help the understanding of the efficacy of test material as follow equation 3. Percentage changes as compared with neuron apoptosis control (%)=[((Data of mirodenafil treated groups−Data of neuron apoptosis control)/Data of neuron apoptosis control)×100] [EQUATION 3]
# [2] = system: caspase-3; assay: Example 2 immunohistochemistry: caspase-3-immunoreactive cells; assay type: in vivo, Sprague-Dawley (SD) rats; conditions: for Numbers of neurons: Caspase-3+: 1 mg/kg s.c. once a day for 14 days, 29 days after neuron apoptosis
# Protocol: as §1
# After deparaffinized of prepared […] histological paraffin sections, citrate buffer antigen (epitope) retrieval pretreatment were conducted as previously (Shi S R et al., J Histochem Cytochem. 41:1599-604(1993)). Briefly, pre-heat water bath with staining dish containing 10 mM citrate buffers (pH 6.0) until temperature reaches 95-100° C. Immerse slides in the staining dish and place the lid loosely on the staining dish. Incubate for 20 minutes and turn off the water bath. Place the staining dish at room temperature and allow the slides to cool for 20 minutes. After epitope retrievals, sections were immunostained using avidin-biotin complex (ABC) methods for caspase-3 and PARP. Endogenous peroxidase activity was blocked by incubated in methanol and 0.3% H2O2 for 30 minutes, and non-specific binding of immunoglobulin was blocked with normal horse serum blocking solution (Vector Lab., Burlingame, Calif., USA. Dilution 1:100) for 1 hr in humidity chamber. Primary antiserum were treated for overnight at 4° C. in humidity chamber, and then incubated with biotinylated universal secondary antibody (Vector Lab., Dilution 1:50) and ABC reagents (Vectastain Elite ABC Kit, Vector Lab., Dilution 1:50) for 1 hr at room temperature in humidity chamber. Finally, reacted with peroxidae substrate kit (Vector Lab.) for 3 min at room temperature. All sections were rinse in 0.01M PBS for 3 times, between steps. The neurons occupied by over 10% of immunoreactivities, the density, of each antiserum for caspase-3 and PARP were regarded as positive, and the mean numbers of caspase-3 and PARPimmunoreactive cells dispersed in the mm^2 of ipsilateral peri-infarct/defect cerebral cortex were counted using an automated image analysis process as establish methods (Lee et al., 2010; Song et al., 2012), respectively. The histopathologist was blinded to the group distribution when performing the analysis.
# All data were expressed as mean±standard deviation (S.D.) of ten rats. Multiple comparison tests for different dose groups were conducted. Variance homogeneity was examined using the Levene test (Levene A, Clin Otalary, 1981; 6:145-51). […] Statistical analyses were conducted using SPSS for Windows (Release 14K, SPSS Inc., USA; Ludbrook, Clin Exp Pharmacol Physiol, 1997; 24:294-6). In addition, the percent changes as compared with neuron apoptosis control and mirodenafil treated rats were calculated to help the understanding of the efficacy of test substances as follow Equation 6 and 7. Percentage Changes as Compared with Sham Control (%)=[((Data of neuron apoptosis control−Data of sham control rat)/Data of sham control rats)×100] [EQUATION 6] Percentage Changes as Compared with neuron apoptosis Control (%)=[((Data of test material treated rats−Data of neuron apoptosis control rats)/Data of neuron apoptosis control rats)×100] [EQUATION 7]
structure (smiles),measurement,setting,value
"CCCOc1ccc(S(=O)(=O)N2CCN(CCO)CC2)cc1-c1nc2c(CCC)cn(CC)c2c(=O)[nH]1 [Mirodenafil, mirodenafil]","ipsilateral cerebral atrophic %, change as compared with neuron apoptosis control",[1]; 0.5 mg/kg,−8.70%
same,"numbers of degenerative neurons, change as compared with neuron apoptosis control",[1]; 0.5 mg/kg,−44.47%
same,Cerebral atrophic %,[1]; 0.5 mg/kg s.c. once a day,51.38 ± 10.74^a %
same,Numbers of neurons: Degenerative cells,[1]; 0.5 mg/kg s.c. once a day,45.20 ± 8.97^ab cells/mm^2 of cerebral cortex
same,"ipsilateral cerebral atrophic %, change as compared with neuron apoptosis control",[1]; 1 mg/kg,−46.42%
same,"numbers of degenerative neurons, change as compared with neuron apoptosis control",[1]; 1 mg/kg,−73.46%
same,Cerebral atrophic %,[1]; 1 mg/kg s.c. once a day,30.15 ± 10.28^ab %
same,Numbers of neurons: Degenerative cells,[1]; 1 mg/kg s.c. once a day,21.60 ± 9.43^ab cells/mm^2 of cerebral cortex
same,"ipsilateral cerebral atrophic %, change as compared with neuron apoptosis control",[1]; 2 mg/kg,−53.31%
same,"numbers of degenerative neurons, change as compared with neuron apoptosis control",[1]; 2 mg/kg,−76.54%
same,Cerebral atrophic %,[1]; 2 mg/kg s.c. once a day,26.28 ± 9.12^ab %
same,Numbers of neurons: Degenerative cells,[1]; 2 mg/kg s.c. once a day,19.10 ± 2.08^ab cells/mm^2 of cerebral cortex
same,"numbers of caspase-3-immunoreactive neurons at 29 days, change as compared with neuron apoptosis control",[2]; 1 mg/kg from 24 hrs after surgery,−57.29%
same,"numbers of caspase-3-immunoreactive neurons at 29 days, change as compared with neuron apoptosis control",[2]; 1 mg/kg from 72 hrs after surgery,−40.63%
same,"numbers of caspase-3-immunoreactive neurons at 29 days, change as compared with neuron apoptosis control",[2]; 1 mg/kg from 168 hrs after surgery,−15.57%
same,Numbers of neurons: Caspase-3+,[2]; start 24 hrs after operation,30.01 ± 4.90^ab cells/mm^2 of cerebral cortex
same,Numbers of neurons: Caspase-3+,[2]; start 72 hrs after operation,41.71 ± 6.34^ab cells/mm^2 of cerebral cortex
same,Numbers of neurons: Caspase-3+,[2]; start 168 hrs after operation,59.33 ± 5.13^a cells/mm^2 of cerebral cortex
